Assay results from patent publication US12674795B2, “Method for peritoneal metastatic cell detection and isolation thereof” (THE UNIVERSITY OF HONG KONG, priority 2019, dated 2026).

Legend:
[1] = tested on: M-CSC-HPMC interaction; assay: Microfluidic perfusion assay of M-CSCs on HPMC-coated channels under shear stress; format: cell-based, human; details: for effect on M-CSCs binding/adhesion to HPMCs: M-CSCs treated before perfusion, result in words
Protocol: (§1) Microfluidic chips were fabricated as described^13. To coat microfluidic channels with selectin recombinant proteins, channels were incubated with 1 μg mL^−1 selectin-Fc recombinant proteins in PBS at 4° C. overnight. To coat microfluidic channels with HPMCs, channels were incubated with 10 μg mL^−1 human fibronectin in serum free medium overnight at 4° C. After wash, the channels were introduced with HPMCs suspension (3.5×10^6 mL^−1) and cultured overnight under C02 incubator at 37° C. To functionally block selectins, HPMCs were incubated with 20 μg mL^−1 anti-E-selectin, anti-P-selectin, anti-L-selectin or isotype antibody at room temperature for 1 h before the assays.
(§2) CSCs of 70-100 μm diameter were collected with cell strainer, fluorescently labeled with CMFDA Celltracker (2.5 μg mL^−1, C7025, Life Technologies) as per manufacturer's instructions for assays. Fluorescently labeled CSCs resuspended in binding buffer (1500 spheroids mL^−1) were perfused into the microfluidic channel through a syringe pump (LongerPump) under desired shear stresses. The viscosity of the binding buffer (0.9 cp) is within the range of viscosity (0.95±0.15 cp) of ascitic fluid in patients with various ascitic etiologies^48. The motion of cancer spheroids was observed under fluorescent microscope (Nikon ECLIPSE Ti) and serial time lapse images (1 image sec^−1) were captured for 30 sec. More than three randomly chosen areas (4× objective) were captured for each treatment.
(§3) The motion of cancer spheroids under flow was analyzed offline using Image J (National Institutes of Health) and used for the classification of interactions as described^49. Briefly, cancer spheroids that tethered to the surface, then detached in the flow were defined as tethering. Cancer spheroids that moved at a velocity below the hydrodynamic velocity for more than one spheroid diameter were defined as rolling. Cancer spheroids that remained stationary for more than one frame during recording were determined as adhesion. Percentage of tethering or adhesion was calculated by dividing the number of tethering or adherent spheroids by the total number of spheroids flew through the field of observation in the 30 sec duration.
(§4) In some experiments, M-CSCs were incubated with or without neuramidase (100 mU, N2876, Sigma-Aldrich), α1-3,4 fucosidase (150 mU, P0769S, New England BioLabs), OSGE (100 μg mL^−1, CLE100, Cedarlane) or PNGase (10 U mL^−1, P0704S, New England BioLabs) according to the manufacturer's instructions for 1 h at 37° C. prior staining. To inhibit sulfation, M-CSCs were incubated with sodium chlorate (25 mM, 403016, Sigma-Aldrich) in serum-free medium for 48 h. To functionally block sLe^x, sLe^a or IGF-1R on M-CSCs, M-CSCs were incubated with CSLEX-1 (10 μg mL^−1, 551344, BD Biosciences), anti-CA19-9 (10 μg mL^−1, ab15146, Abcam), anti-IGF-1R (2 μg mL^−1, 24-60, Invitrogen) or isotype antibodies for 1 h at 37° C., respectively. To remove cell surface glycoprotein, M-CSCs were incubated with Trypsin/EDTA solution (0.05%, 25300054, Gibco) for 5 min and neutralized with the complete medium. To inhibit glycolipid synthesis, M-CSCs were cultured with or without DL-PPMP (2.5 μM, sc-205655, Santa Cruz) in serum-free medium for 5 days. To test the involvement of RTKs in mediating CSCs adhesion, M-CSCs were treated with or without small molecule inhibitors as indicated in the FIG. 13 before perfusion. All CSC perfusion experiments were repeated with HPMCs isolated from at least 3 different patients.

[2] = tested on: P-selectin-Fc; assay: Microfluidic perfusion assay of M-CSCs on P-selectin-Fc recombinant protein-coated channels; format: cell-based; details: for effect on M-CSCs binding/adhesion to P-selectin-Fc: M-CSCs treated before perfusion, result in words
Protocol: as §1, §2, §3, §4

[3] = target: P-selectin recombinant protein (Homo sapiens, UniProt P16109); assay: Flow adhesion assay of HM and NM cells on P-selectin recombinant protein; format: cell-based; details: 5 mM EDTA solution, shear stress 1 dynes/cm^2 for 1 min
From the text: FIG. 9A-9E show results of flow adhesion assay. (A) Transient velocities of representative cells on P-selectin recombinant protein. Triangles represent a rolling adhesion highly metastatic (HM) cells; Circles represent a non-interaction non-metastatic (NM) cells quickly passed through the channel. […] (B) Rolling percentage of NM and HM cells on P-selectin recombinant protein. (C) Cumulative frequency rolling velocity histograms. (D) Adhesion percentage of NM and HM cells on P-selectin recombinant protein. HM or NM cells were introduced into flow chambers pre-coated with […] P-selectin-Fc chimera or Fc control at shear stress of 0.1 dyne/cm2. Cell movement was observed under microscope and captured with high speed camera. Cancer cells rolling velocity was calculated by dividing moving distance with duration. […] Adhesion was defined as cancer cells stop moving for more than one second during recording. The rolling or adhesion fraction was quantified through dividing the number of rolling or adhesive cells by the total number of cells traveled into the field of observation area for 30 seconds. (E) Adhesion percentage of NM and HM cells on P-selectin-Fc chimera at shear stress of 0.05-0.15 dyne/cm2. Data are presented as mean±S.E.; *P<0.05, **P<0.01.
FIG. 10A-10B show EDTA detachment assay. […] (A) A brightfield microscope image of captured HM cells. […]

[4] = target: T1, P-selectin (Mus musculus, UniProt Q01102); assay: Adhesion of tumor cells to the mouse peritoneum; format: in vivo; details: 1 mg kg^-1 i.p. 1 h prior to injection of M-CSCs from SKOV-3 and ovarian cancer patients; NOD/SCID mice
T1 construct: from tissue; host or cells: peritoneum, mesentery and omentum of living NOD/SCID mice
T1 sequence (Q01102 42-768): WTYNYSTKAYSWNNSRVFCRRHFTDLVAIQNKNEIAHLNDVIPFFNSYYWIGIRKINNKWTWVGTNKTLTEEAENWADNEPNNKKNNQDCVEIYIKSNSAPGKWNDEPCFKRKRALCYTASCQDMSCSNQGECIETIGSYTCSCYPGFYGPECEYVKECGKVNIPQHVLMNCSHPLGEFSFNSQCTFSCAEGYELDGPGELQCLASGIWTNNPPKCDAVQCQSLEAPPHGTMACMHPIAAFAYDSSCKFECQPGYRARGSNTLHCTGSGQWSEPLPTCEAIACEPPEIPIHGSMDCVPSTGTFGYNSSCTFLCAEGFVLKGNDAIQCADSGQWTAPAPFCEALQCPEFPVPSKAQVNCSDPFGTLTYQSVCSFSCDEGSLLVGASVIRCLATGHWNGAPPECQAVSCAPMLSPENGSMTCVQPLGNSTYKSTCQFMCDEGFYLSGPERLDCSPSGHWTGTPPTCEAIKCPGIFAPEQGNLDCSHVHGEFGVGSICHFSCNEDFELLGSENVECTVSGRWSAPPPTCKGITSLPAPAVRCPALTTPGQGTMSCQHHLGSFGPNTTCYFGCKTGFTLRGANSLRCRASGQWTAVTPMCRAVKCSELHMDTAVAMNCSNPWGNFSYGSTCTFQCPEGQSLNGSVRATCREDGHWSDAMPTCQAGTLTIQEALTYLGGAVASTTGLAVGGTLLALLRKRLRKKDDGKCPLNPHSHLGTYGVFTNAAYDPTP
Protocol: M-CSCs (1×10^7) derived from SKOV-3 and ovarian cancer patients were fluorescently labeled with CMFDA and i.p. injected into NOD/SCID mice. To inhibit P-selectin, KF38789 (1 mg kg^−1, 2748, Tocris) or vehicle control were injected into the peritoneal cavity of mice 1 h prior to cell injection. Mice were sacrificed after 16 h and the peritoneal cavity was washed with PBS to remove non-adherent cells. Fluorescent signal from adherent tumor cells was acquired in the IVIS Spectrum and peritoneum, mesentery, and omentum were lysed with 1% NP-40 and fluorescence was measured with VICTOR (PerkinElmer).

[5] = shear stress around 1 dynes cm^-2

P-selectin recombinant protein, sequence (P16109 with tags, fused parts or gaps limits assumed, species assumed): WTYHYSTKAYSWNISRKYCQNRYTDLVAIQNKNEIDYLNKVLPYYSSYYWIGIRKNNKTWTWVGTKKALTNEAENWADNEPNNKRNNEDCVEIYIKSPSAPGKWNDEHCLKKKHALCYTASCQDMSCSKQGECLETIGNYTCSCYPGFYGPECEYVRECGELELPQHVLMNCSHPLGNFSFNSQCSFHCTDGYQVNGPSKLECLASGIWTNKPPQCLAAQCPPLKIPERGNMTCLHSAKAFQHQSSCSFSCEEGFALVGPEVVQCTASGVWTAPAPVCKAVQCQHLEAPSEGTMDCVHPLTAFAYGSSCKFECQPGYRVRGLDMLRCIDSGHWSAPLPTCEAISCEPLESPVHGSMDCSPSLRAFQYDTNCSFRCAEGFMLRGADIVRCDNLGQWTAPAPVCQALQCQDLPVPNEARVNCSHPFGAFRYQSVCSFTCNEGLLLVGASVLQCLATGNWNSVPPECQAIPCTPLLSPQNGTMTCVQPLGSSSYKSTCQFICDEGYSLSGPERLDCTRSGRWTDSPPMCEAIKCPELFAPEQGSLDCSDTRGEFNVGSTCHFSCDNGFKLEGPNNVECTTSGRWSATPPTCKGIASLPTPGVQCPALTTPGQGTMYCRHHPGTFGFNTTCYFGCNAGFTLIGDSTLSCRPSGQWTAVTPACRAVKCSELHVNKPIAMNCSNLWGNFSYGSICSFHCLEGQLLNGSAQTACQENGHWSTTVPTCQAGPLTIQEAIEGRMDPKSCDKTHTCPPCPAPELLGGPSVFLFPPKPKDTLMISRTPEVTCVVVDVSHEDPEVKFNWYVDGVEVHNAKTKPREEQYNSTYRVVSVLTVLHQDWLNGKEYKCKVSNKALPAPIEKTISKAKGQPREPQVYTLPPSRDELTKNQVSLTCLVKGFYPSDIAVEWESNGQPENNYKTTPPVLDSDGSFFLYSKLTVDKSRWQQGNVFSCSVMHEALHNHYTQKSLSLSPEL

| Molecule | effect on M-CSCs binding/adhesion to HPMCs [1] | detachment of adherent M-CSCs from HPMCs [1, 5] | detachment of adherent M-CSCs from P-selectin chimera [2, 5] | detachment of captured HM cells from P-selectin-coated channel bottom [3] | extent of tumor metastases on the omentum, mesenteries and peritoneal wall [4] | effect on M-CSCs binding/adhesion to P-selectin-Fc [2] |
| --- | --- | --- | --- | --- | --- | --- |
| O=C(O)CN(CCN(CC(=O)O)CC(=O)O)CC(=O)O [EDTA] | inhibited the adhesion | easily detach | easily detach | easily detached | – | – |
| COc1ccc(C2CC(c3c(O)cc(C)oc3=O)=NCCS2)c(OC)c1 (stereo not drawn) [KF38789] | – | – | – | – | significantly inhibited | – |
| CCCCCCCCCCCCCCCC(=O)N[C@H](CN1CCOCC1)[C@H](O)c1ccccc1 [PPMP] | had no effect | – | – | – | – | had no effect |
| trypsin | almost completely abolished the adhesion | – | – | – | – | almost completely abolished the adhesion |
| O=c1c(-c2ccc(O)cc2)coc2cc(O)cc(O)c12 [genistein] | marked decrease | – | – | – | – | marked decrease |
| CC(C)(C)c1cc(C=C(C#N)C#N)cc(Br)c1O [AG1024] | marked decrease | – | – | – | – | marked decrease |
| [Na+].[O-][Cl+2]([O-])[O-] [sodium chlorate] | did not alter the binding activity | – | – | – | – | did not alter the binding activity |
